Tests used:
[1] = tested on: ScAMPI (SNAP-tag®-Epac1-HaloTag®) expressed in U2OS cells; assay: cAMP FLIM-FRET sensor ScAMPI (fluorescence lifetime imaging); assay type: cell-based
Description: The Epac-based cAMP sensor “Epac-S^H189”, was obtained from Addgene (Plasmid #170348). This sensor consists of a mTurquoise fluorescent protein and a tdDark Venus protein linked via the Epac1 protein.
To construct the SNAP-tag®-Epac1-HaloTag® sensor, the sequence encoding the tdDark Venus domain in Epac-S^H189 was first replaced with the HaloTag® sequence using Nhe1 and Asc1 fragment ligation (NEB), creating a construct with mTurquoise and HaloTag® flanking the Epac1 domain (i.e, mTurquoise-Epac1-HaloTag®). […]
To evaluate this semisynthetic system in cells, U2OS cells (ATCC) were maintained in DMEM (Corning) containing 10% v/v FBS (ATCC), 1% v/v L-glutamine (Gibco) and 1% v/v Pen/Strep (Gibco). […] Fluorescence lifetime imaging was performed with a Leica SP8 Falcon using LASX software for image acquisition and analysis. […] Fluorescence emission was collected by the HyD detector. […] Mean amplitude weighted lifetime image (τmean) was calculated by fixing the two lifetimes and performing an image fit for their respective amplitudes (a1 and a2). FRET efficiency was calculated using the mean lifetime obtained in absence (τmean,-forskolin) and (τmean,+forskolin) presence of forskolin as 1^−(τmean,-forskolin/τmean,+forskolin).

HaloTag® protein = molecular target: T1, HaloTag® protein (Rhodococcus rhodochrous, UniProt P0A3G2, A155T/A167V/A172T/A224E/C128F/C176G/D78G/E160K/E257K/H272N/K175M/K195N/L47V/L88M/N227D/P291S/S2A/S58T/T264A/Y273L/Y87F); assay: Absorption increase of ligands on binding HaloTag® protein; assay type: biochemical
T1 construct: 6xHis; made in house; host or cells: bacterial expression (pRSET-A vector, Invitrogen)
T1 sequence (P0A3G2 other isoform, or with tags, fused parts or gaps with the stated changes): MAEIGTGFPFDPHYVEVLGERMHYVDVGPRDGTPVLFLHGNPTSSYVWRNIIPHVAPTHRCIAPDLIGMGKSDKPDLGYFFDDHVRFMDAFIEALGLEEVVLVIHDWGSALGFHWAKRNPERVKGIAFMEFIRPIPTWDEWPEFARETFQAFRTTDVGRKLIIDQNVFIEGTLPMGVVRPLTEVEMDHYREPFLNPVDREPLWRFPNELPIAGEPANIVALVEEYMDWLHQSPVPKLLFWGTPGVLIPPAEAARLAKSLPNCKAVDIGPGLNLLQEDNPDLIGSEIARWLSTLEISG
Method: The bacterial expression vector pRSET-A (Invitrogen) was used to recombinantly express HaloTag® (HT7; Promega).^7 The soluble 6×His-Tagged HaloTag® protein was affinity purified by immobilized metal affinity chromatography (IMAC) on a 5^−mL Fast Flow HiTrap Sepharose 6 column (Cytiva) with a 0-200 mM imidazole elution gradient using an ÄKTA Avant Protein Purification System (Cytiva).
HaloTag® protein was used as a […] solution in 1× TBS. Absorption measurements were performed in 1.4^−mL semi-micro quartz cuvettes. A […] solution of HaloTag® ligand 65HTL or 91HTL was prepared in 10 mM HEPES, pH 7.3 containing 0.1 mg mL-1 CHAPS. An aliquot of HaloTag® protein (2 equiv, […] [HaloTag®]) was added. To examine chromogenicty (FIG. 5B, left panel), the resulting mixture was incubated until a consistent absorption signal/spectrum was observed (<60 min for 65HTL); an equivalent volume of 1× TBS blank was added to separate “−HT” samples in place of enzyme to record the ligand-only absorption. Spectra are averages (n=2). To compare rates of HaloTag® labeling (FIG. 5B, right panel) absorption at λabs (645 nm for 65HTL, 621 nm for 91HTL) was recorded at regular intervals (0.1 min, 0-5 min; 1 min, 5-120 min; 5 min, 2-24 h) immediately following addition of HaloTag® protein.

[2] = tested on: U2OS cells stably expressing HaloTag®-histone H2B fusion protein; assay: Loading experiments using ligands 65HTL and 91HTL (JF552-HaloTag® ligand chase); assay type: cell-based; details: 200 nM, 0-4 h
Method: U2OS cells (ATCC) and U2OS cells stably expressing an integrated HaloTag®-histone H2B fusion protein (U2OS·H2B·HaloTag®) were cultured in Dulbecco's modified Eagle medium (DMEM, phenol red-free; Life Technologies) supplemented with 10% (v/v) fetal bovine serum (FBS, Life Technologies), 1 mM GlutaMAX (Life Technologies) and maintained at 37° C. in a humidified 5% (v/v) CO2 environment. These cell lines undergo regular mycoplasma testing by the Janelia Cell Culture Facility. For mitochondrial imaging using the HaloTag® system, U2OS cells were transiently transfected using nucleofection (Lonza) with a plasmid constitutively expressing a HaloTag®-TOMM20 fusion protein, which is located on the outer mitochondrial membrane. […]
For loading curve experiments, U2OS·H2B·HaloTag® stable cells were incubated with 200 nM 65HTL and 91HTL for 0-4 h at 37° C., washed 3× with dye-free media then chased with 200 nM JF552-HaloTag® ligand 15 for 30 min at 37° C., washed 3× with dye-free media and fixed with 4% paraformaldehyde in 0.1 M phosphate buffer, pH 7.4 for 15 min at 37° C. […] Fluorescence was quantified as the integrated density of nuclear signals from confocal image stack projections analyzed in FIJI;^82 n=100 nuclear signals per compound.

C=C/C=C(C=C)/[N+](C)=C1\C=CC2=C(c3c(F)c(C(=O)NCCOCCOCCCCCCCl)c(F)c(F)c3C(=O)[O-])c3ccc(N(C)c4ccccc4)cc3C(C)(C)C2=C1 [65HTL, JQ645-HaloTag® ligand]
FRET quenching of the JFX612 donor [1]: effective FRET quencher | HaloTag® labeling in vitro compared with 91HTL (HaloTag® protein; absorbance vs. time upon addition to HaloTag® protein): substantially faster | ε of HaloTag® conjugate (HaloTag® protein; after incubation with HaloTag® protein): 110,000 M^−1 cm^−1 | λabs used for HaloTag® labeling read-out (HaloTag® protein; ligand in 10 mM HEPES, pH 7.3 with CHAPS, HaloTag® protein added): 645 nm | increase in absorptivity on incubation with HaloTag® protein (HaloTag® protein; ligand with 2 equiv HaloTag® protein, 10 mM HEPES, pH 7.3): 47 fold | HaloTag® labeling in cells compared with 91HTL [2]: substantially faster

Reference: US20250115628A1, “FLUORINATED FLUOROPHORES” (HOWARD HUGHES MEDICAL INSTITUTE, priority 2023, published 2025)
